# Test results published in ChEMBL document CHEMBL1201862, “PubChem BioAssay data set” (2004).
# Calls of active or inactive are those of the source.
# What was measured:
# Mu-type opioid receptor = Mu-type opioid receptor (Homo sapiens, UniProt P35372); format: functional, cell-based;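 also: U2OS cells with beta-arrestin recruitment to OPRM1 by beta-gal complementation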
# [1] = target: 5-hydroxytryptamine receptor 2A (Mus musculus, UniProt P35363); format: functional, cell-based;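 also: CHO-K1 cells with tagged receptor and beta-arrestin; agonist potency measured as compound-induced activation of the receptor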
# [2] = target: FAD-linked sulfhydryl oxidase ALR (Homo sapiens, UniProt P55789); test: ALR-catalysed DTT oxidation blockers – biochemical, H2O2 detection, luminescence, cherry-pick, dose response (AID 493248)
# Sequence of FAD-linked sulfhydryl oxidase ALR (P55789 whole entry): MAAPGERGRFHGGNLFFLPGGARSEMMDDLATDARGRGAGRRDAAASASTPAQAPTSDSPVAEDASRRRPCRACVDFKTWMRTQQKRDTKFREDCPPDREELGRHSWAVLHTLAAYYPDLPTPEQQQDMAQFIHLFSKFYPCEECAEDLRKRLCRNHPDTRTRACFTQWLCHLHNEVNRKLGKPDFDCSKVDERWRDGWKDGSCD
# [3] = target: Multidrug resistance protein CDR2 (Candida albicans (strain SC5314 / ATCC MYA-2876) (Yeast), UniProt P78595); test: blockers of Nile Red efflux by Candida CDR2 – S. cerevisiae AD1-8u, singleplex, Cherry Pick2 set, dose response (AID 623994); format: functional; settings: read-out: EC50_MICROM
# Sequence of Multidrug resistance protein CDR2 (P78595 whole entry): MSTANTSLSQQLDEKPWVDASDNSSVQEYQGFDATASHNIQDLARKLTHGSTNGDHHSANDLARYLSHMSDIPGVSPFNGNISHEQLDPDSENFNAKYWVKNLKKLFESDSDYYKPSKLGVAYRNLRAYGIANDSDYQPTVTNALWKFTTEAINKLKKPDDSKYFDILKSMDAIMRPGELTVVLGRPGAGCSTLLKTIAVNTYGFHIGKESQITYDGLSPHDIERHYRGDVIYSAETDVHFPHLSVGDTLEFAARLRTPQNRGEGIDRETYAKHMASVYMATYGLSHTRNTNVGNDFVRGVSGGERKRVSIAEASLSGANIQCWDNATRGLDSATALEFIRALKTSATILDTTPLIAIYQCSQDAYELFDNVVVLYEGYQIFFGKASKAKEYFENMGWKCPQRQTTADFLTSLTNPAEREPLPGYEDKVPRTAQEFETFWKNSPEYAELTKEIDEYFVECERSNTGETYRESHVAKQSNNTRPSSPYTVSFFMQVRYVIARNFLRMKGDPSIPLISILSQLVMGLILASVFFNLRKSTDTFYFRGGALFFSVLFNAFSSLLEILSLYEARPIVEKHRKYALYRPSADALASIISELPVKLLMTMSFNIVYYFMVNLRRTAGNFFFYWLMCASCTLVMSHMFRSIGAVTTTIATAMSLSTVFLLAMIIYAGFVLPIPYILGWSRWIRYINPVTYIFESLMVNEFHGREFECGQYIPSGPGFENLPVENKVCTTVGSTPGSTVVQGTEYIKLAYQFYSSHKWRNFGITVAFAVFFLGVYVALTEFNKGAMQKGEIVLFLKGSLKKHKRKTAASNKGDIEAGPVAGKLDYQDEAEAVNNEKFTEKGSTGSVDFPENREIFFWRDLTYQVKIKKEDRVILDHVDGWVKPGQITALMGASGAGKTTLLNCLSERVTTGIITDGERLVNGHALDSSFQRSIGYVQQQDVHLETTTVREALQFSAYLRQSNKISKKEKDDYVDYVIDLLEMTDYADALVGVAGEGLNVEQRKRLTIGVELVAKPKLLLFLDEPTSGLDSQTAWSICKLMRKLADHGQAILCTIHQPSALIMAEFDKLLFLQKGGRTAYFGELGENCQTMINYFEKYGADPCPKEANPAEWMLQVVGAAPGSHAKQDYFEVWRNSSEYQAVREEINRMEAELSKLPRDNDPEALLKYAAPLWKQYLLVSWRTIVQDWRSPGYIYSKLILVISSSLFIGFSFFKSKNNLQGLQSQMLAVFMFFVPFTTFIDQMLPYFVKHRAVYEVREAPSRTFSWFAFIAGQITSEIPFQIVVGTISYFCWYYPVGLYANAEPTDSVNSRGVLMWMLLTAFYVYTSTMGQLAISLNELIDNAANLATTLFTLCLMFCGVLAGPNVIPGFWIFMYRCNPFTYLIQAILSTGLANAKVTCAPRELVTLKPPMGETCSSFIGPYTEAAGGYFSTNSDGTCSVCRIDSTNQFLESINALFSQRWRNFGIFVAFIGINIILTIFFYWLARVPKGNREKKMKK
# [4] = fluconazole-exposed Candida albicans growth modulators – fluorescence, retest, confirmation (AID 2467); format: functional, cell-based
# [5] = NIH-3T3 fibroblast cytotoxicity, dose response, cytotoxicity control, cell-based, fluorescence, Alamar Blue, secondary assay (AID 2327); format: functional;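 also: NIH-3T3 mouse fibroblasts cultured with fluconazole at 8 µg/mL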
# Interleukin-8 [6] = target: T1, Interleukin-8 (Homo sapiens, UniProt P10145); test: Dose Response confirmation of uHTS small molecule hits for cystic fibrosis induced NFkb Inhibitors in a TNFa-induced IL8 counterscreen.; format: functional; settings: read-out: IC50_Mean
# T1 sequence (P10145 whole entry): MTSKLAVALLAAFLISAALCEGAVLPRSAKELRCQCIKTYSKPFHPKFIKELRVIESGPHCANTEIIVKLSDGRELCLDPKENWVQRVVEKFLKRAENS
# Interleukin-8 [7] = target: T1, Interleukin-8; test: Dose Response confirmation of uHTS small molecule hits for cystic fibrosis induced NFkb Inhibitors in a PAF-induced IL8 counterscreen.; format: functional; settings: read-out: IC50_Mean
# Kallikrein-7 = Kallikrein-7 (Homo sapiens, UniProt P49862); test: Fluorescence Intensity-based biochemical primary high throughput dose response assay to identify activators of kallikrein-7 (K7) zymogen.
# Sequence of Kallikrein-7 (P49862 whole entry): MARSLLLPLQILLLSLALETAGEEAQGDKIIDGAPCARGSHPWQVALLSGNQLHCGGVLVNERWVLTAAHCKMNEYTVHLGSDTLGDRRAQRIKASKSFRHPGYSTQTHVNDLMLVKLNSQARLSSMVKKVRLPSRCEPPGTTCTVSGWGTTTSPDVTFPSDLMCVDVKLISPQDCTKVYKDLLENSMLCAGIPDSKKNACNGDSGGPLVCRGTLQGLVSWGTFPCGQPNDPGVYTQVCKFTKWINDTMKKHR
# HEK293 [8] = test: cells; settings: Homo sapiens
# HEK293 [9] = test: cells; settings: Homo sapiens; remark: listed apart in the source
# [10] = target: Arf-GAP with SH3 domain, ANK repeat and PH domain-containing protein 1 (Homo sapiens, UniProt Q9ULH1); format: functional;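 also: biochemical fluorescence polarization dose–response screen measuring inhibition of ASAP1; ASAP1 GAP domain stimulating GTP hydrolysis by truncated human ARF1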
# Sequence of Arf-GAP with SH3 domain, ANK repeat and PH domain-containing protein 1 (Q9ULH1 whole entry, the tested form may be a part): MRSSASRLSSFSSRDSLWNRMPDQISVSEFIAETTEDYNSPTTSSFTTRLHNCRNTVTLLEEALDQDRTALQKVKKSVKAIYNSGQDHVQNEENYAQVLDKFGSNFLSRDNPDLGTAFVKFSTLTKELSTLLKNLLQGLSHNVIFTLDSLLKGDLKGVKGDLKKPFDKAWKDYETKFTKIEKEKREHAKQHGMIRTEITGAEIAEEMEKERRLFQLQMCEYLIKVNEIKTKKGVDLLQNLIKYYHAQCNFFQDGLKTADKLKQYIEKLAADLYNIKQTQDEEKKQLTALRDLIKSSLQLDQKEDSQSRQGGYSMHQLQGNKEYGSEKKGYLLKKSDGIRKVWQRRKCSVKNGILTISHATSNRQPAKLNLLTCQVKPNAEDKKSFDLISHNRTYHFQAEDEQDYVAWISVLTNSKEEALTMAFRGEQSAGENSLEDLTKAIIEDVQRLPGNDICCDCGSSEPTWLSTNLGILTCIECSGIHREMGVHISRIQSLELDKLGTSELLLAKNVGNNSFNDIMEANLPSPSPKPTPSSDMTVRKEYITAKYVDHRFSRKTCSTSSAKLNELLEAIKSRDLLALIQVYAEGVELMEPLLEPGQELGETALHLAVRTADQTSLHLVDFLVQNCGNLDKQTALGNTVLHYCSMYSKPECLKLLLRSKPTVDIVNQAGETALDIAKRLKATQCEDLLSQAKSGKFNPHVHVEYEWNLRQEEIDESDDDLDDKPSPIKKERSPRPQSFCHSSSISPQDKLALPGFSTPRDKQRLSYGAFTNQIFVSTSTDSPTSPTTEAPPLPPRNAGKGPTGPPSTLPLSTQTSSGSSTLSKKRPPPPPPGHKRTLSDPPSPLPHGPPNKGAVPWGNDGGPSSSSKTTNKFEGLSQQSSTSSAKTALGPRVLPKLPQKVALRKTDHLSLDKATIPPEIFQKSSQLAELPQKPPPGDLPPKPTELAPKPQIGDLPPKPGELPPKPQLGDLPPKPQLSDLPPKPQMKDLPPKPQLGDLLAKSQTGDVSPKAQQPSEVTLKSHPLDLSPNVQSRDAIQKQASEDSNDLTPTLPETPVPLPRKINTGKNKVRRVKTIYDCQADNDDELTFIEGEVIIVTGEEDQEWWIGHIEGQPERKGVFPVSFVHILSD
# [11] = target: T2, Rac GTPase-activating protein 1 (Homo sapiens, UniProt Q9H0H5); test: blockers of MgcRacGAP-driven Rac1 GTP hydrolysis – biochemical, ADP Hunter fluorescence, primary and confirmatory, confirmation (AID 624330); format: functional
# T2 sequence (Q9H0H5 whole entry): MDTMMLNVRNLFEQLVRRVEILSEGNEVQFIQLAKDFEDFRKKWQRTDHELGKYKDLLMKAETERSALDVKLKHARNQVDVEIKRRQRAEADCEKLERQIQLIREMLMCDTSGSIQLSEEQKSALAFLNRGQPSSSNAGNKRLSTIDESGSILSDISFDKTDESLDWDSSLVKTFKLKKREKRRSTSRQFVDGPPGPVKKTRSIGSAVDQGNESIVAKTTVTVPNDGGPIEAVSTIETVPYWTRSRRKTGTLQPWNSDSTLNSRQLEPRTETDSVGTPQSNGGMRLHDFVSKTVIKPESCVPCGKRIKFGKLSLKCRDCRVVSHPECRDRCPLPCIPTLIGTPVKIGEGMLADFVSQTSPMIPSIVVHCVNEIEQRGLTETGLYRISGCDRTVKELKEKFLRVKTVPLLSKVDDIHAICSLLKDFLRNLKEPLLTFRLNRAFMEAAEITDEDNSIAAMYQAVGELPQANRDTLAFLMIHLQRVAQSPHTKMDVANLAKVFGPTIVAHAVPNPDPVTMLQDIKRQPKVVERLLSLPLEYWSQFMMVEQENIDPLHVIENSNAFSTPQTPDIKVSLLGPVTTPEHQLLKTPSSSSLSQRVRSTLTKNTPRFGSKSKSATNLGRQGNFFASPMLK
# [12] = viability loss in HeLa cells – cytotoxicity control for MgcRacGAP inhibitor project, dose response (AID 624300); format: functional
# [13] = target: T3, DNA repair protein RAD52 homolog (Homo sapiens, UniProt P43351); format: functional, biochemical
# T3 sequence (P43351 whole entry): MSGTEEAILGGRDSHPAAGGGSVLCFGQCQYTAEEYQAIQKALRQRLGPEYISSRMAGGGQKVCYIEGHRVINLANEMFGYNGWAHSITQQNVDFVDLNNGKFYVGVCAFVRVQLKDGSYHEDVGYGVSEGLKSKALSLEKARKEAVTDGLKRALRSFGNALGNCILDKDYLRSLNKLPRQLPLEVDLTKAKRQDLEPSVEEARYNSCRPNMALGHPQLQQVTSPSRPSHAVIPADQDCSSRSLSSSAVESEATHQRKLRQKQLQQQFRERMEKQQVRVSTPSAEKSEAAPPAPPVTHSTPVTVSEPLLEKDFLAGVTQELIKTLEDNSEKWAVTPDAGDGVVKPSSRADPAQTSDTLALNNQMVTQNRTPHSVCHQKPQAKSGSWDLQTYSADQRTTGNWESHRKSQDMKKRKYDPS
# [14] = target: T4, Sentrin-specific protease 1 (Homo sapiens, UniProt Q9P0U3); test: SENP1 catalytic domain blockers, concentration series – biochemical, kinetic FRET, dose response (AID 651697); format: functional; settings: read-out: IC50_Mean
# T4 sequence (Q9P0U3 whole entry, the tested form may be a part): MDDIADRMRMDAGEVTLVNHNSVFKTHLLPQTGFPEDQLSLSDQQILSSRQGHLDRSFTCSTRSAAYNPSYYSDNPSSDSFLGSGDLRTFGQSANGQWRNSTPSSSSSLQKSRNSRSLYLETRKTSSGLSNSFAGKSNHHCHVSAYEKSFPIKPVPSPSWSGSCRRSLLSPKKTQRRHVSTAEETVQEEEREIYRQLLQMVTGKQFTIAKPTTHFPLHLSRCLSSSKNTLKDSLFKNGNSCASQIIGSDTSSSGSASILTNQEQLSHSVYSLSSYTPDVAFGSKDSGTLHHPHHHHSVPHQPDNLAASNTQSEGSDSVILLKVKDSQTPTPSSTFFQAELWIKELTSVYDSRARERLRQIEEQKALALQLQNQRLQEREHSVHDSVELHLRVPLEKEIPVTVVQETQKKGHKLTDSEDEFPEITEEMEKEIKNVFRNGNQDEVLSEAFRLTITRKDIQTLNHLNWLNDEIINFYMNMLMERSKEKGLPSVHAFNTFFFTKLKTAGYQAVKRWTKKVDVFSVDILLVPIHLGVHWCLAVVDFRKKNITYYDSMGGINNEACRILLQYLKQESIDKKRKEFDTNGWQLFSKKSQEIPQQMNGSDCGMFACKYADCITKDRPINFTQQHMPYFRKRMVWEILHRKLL
# [15] = target: T4, Sentrin-specific protease 1; test: Dose response confirmation of small molecule inhibitors of the catalytic domain of the SUMO protease, SENP1 in a FRET assay.; format: functional; settings: read-out: IC50_Mean
# [16] = target: Botulinum neurotoxin type F (Clostridium botulinum, UniProt P30996); test: High-throughput multiplex microsphere dose response for inhibitors of toxin protease, specifically Botulinum neurotoxin light chain F protease, compounds from Cherry Pick 02.; format: functional; settings: read-out: EC50_MICROM
# Sequence of Botulinum neurotoxin type F (P30996 1-436 limits assumed): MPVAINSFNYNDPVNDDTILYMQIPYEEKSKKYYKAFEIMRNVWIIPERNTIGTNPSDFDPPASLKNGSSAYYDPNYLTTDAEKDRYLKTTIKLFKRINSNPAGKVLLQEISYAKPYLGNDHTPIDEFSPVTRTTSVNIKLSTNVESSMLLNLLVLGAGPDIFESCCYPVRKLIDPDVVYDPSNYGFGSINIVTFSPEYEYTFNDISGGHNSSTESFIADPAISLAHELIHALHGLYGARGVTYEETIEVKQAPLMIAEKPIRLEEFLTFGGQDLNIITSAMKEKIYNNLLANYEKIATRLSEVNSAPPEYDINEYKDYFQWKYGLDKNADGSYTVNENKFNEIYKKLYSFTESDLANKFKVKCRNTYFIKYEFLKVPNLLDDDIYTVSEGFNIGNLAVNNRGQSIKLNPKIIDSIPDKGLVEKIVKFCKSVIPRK
# [17] = target: T5, Mitochondrial peptide methionine sulfoxide reductase (Bos taurus, UniProt P54149); format: functional;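 also: absorbance read-out, biochemical high-throughput dose-response screen for MsrA inhibitors, confirmatory; recombinant bovine MsrA coupled to E. coli TrxB with NADPH and selenocystamine; potency is for inhibitors of MsrA activity on DMSO substrate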
# T5 sequence (P54149 whole entry): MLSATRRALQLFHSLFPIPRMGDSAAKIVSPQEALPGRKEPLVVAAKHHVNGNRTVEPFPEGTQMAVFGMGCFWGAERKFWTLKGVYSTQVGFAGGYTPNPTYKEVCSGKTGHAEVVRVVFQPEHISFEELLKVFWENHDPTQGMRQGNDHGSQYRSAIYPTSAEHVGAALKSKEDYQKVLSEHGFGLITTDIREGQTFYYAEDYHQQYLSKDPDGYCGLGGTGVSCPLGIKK
# [18] = Fluorescence-based cell-based high throughput dose response assay for inhibitors of the interaction of nucleotide-binding oligomerization domain containing 2 (NOD2) and the receptor-interacting serine-threonine kinase 2 (RIPK2).; format: functional; settings: Homo sapiens
# Sequence of Mu-type opioid receptor (P35372 whole entry): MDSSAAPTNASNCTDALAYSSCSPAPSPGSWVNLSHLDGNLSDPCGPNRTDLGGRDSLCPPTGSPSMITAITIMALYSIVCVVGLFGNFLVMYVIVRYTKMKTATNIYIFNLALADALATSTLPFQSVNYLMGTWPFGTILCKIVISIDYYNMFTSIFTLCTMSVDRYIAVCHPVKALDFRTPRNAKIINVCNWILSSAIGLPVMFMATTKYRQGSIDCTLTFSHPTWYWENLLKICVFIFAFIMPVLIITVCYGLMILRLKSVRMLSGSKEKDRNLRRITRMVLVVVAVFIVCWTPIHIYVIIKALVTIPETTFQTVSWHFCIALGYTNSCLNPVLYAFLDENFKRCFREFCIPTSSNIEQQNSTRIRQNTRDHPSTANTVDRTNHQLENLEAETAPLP
smiles,measurement,setting,value
CNCCc1ccc(O)c(O)c1,EC50,Mu-type opioid receptor,92.3 µM (inactive)
same,EC50,[1],0.0874 µM (active)
same,AC50,[2],4.11 µM (active)
CCC(=O)N1CCN(c2ccc(Cl)cc2NC(=O)c2ccc3c(c2)OCCO3)CC1,EC50,[3],32.1 µM (active)
same,EC50,[4],3.35 µM (active)
same,EC50,[5],117 µM (active)
O=C(NCCc1ccccc1)c1coc(=O)c(Br)c1,IC50,Interleukin-8 [6],0.684 µM (active)
same,IC50,Interleukin-8 [7],0.987 µM (active)
same,EC50,Kallikrein-7,16.5 µM (inactive)
same,EC50,HEK293 [8],> 59.6 µM (inactive)
same,EC50,HEK293 [9],> 59.6 µM (inactive)
C[n+]1c(-c2ccc(C=NNC(=O)c3ccc(C(=O)NN=Cc4ccc(-c5cn6ccccc6[n+]5C)cc4)cc3)cc2)cn2ccccc21,IC50,[10],22.3 µM (inactive)
same,IC50,[11],66.4 µM (active)
same,CC50,[12],100 µM (active)
same,AC50,[13],1.52 µM (active)
O=C(O)c1ccc(N/N=C/c2cccc3nccnc23)cc1,IC50,[14],15.1 µM (active)
same,IC50,[15],8.97 µM (active)
Cc1ccc(-c2nc3cc(C)c(Br)c(C)n3c2Cc2cccc(Cl)c2)cc1,EC50,[16],> 20 µM (inactive)
C/C(CCC(C)C)=N\Nc1ccc(S(N)(=O)=O)cc1[N+](=O)[O-],IC50,[17],155 µM (inactive)
C=CC(=O)N1C/C(=C/c2ccccc2)C(=O)/C(=C\c2ccccc2)C1,IC50,[18],3.66 µM (active)
